From patent US5760235A, “Anticoagulant peptide derivatives and pharmaceutical compositions containing the same as well as a process for preparation thereof” (Gyogyszerkutato Intezet Kft., priority 1992, dated 1998)

Tests used:
[1] = tested on: citrated blood plasma; test: In vitro activated partial thromboplastin time (APTT), citrated blood plasma; type: biochemical, human; design: unit not given here
Experimental: (§1) The antithrombin activity of the compounds of general formula (I) was determined by the usual method [Bagdy et al.: Thromb Haemostas 67, 325-330 (1992)] by measuring whole blood clotting time (WBCT), thrombin time (TT) and activated partial thromboplastin time (APTT). The in vitro activity of some compounds of the invention assayed on native human blood (non-anticoagulated clotting) (WBCT) and on citrated blood plasma (TT and APTT) is presented in Table 1.
(§2) ^2 WBCT = whole blood clotting time, TT = thrombin time, APTT =
(§3) activated partial thromboplastin time parameter. The figures represent
(§4) concentrations of the compounds required to double the clotting time of
(§5) native whole human blood or of citrated blood plasma.

[2] = tested on: native whole human blood; test: In vitro whole blood clotting time (WBCT), native human blood; type: biochemical; design: unit not given here
Experimental: as §1, §2, §3, §4, §5

[3] = tested on: citrated blood plasma; test: In vitro thrombin time (TT), citrated blood plasma; type: biochemical, human; design: unit not given here
Experimental: as §1, §2, §3, §4, §5

[4] = tested on: fibrinolysis induced by tissue plasminogen activator; test: Fibrinolysis induced by tissue plasminogen activator, thromboelastogram; type: biochemical
Text: The compounds of the general formula (I) inhibit clot formation without interfering with the natural lysis of blood clots in the body, e.g. fibrinolysis. […] Thromboelastography. In: Bang N. U., F. K. Beller, E. Deutsch, E. F. Mamman eds. Thrombosis and Bleeding Disorders. Theory and Methods. Academic Press, London, 1971: 70-76].

Structure (SMILES) | APTT: concentration required to double the clotting time [1] | WBCT: concentration required to double the clotting time [2] | TT: concentration required to double the clotting time [3] | inhibitory effect on fibrinolysis induced by tissue plasminogen activator [4]
N=C(N)NCCC[C@@H](C=O)NC(=O)[C@H]1CCCN1C(=O)C(O)C1CCCCC1.N=C(N)NCCC[C@@H](C=O)NC(=O)[C@H]1CCCN1C(=O)C(O)C1CCCCC1.O=S(=O)(O)O (stereo partly drawn) [Example 8, D-2-Cyclohexyl-2-hydroxyacetyl-L-prolyl-L-arginine aldehyde hemisulfate] | 0.35 | 0.72 | 0.100 | only negligible inhibitory effect
N=C(N)NCCC[C@@H](C=O)NC(=O)[C@@H]1CCCN1C(=O)[C@H](O)C(c1ccccc1)c1ccccc1.N=C(N)NCCC[C@@H](C=O)NC(=O)[C@@H]1CCCN1C(=O)[C@H](O)C(c1ccccc1)c1ccccc1.O=S(=O)(O)O [Example 12, 3,3-Diphenyl-D-lactyl-L-prolyl-L-arginine aldehyde hemisulfate] | 0.12 | 0.52 | 0.077 | 
N=C(N)NCCC[C@@H](C=O)NC(=O)[C@H]1CCCN1C(=O)C(O)c1ccc2ccccc2c1.N=C(N)NCCC[C@@H](C=O)NC(=O)[C@H]1CCCN1C(=O)C(O)c1ccc2ccccc2c1.O=S(=O)(O)O (stereo partly drawn) [Example 13, D-2-(2-Naphthyl)-2-hydroxyacetyl-L-prolyl-L-arginine aldehyde hemisulfate] | 1.00 | 1.13 | 0.100 | 
N=C(N)NCCC[C@@H](C=O)NC(=O)[C@H]1CCCN1C(=O)C(O)c1cccc2ccccc12.N=C(N)NCCC[C@@H](C=O)NC(=O)[C@H]1CCCN1C(=O)C(O)c1cccc2ccccc12.O=S(=O)(O)O (stereo partly drawn) [Example 14, D-2-(1-Naphthyl)-2-hydroxyacetyl-L-prolyl-L-arginine aldehyde hemisulfate] | 0.52 | 1.04 | 0.150 | 
